According to patent US4202876A, “Investigating body function” (The Radiochemical Centre Limited, priority 1977, dated 1980):

Experiments:
[1] = Clinical whole-body counting of 75Se retention after oral administration; type: in vivo, human; conditions: for Retention of Selenium-75 Radioactivity: oral approx. 1 μCi
Experimental: Approximately 1 μCi of compound ii was given orally as a drink in water to four adult volunteers, two of them being normal active adult males, 35-50 years of age, and two who had received a total ileal resection more than 10 years previously. All were on a normal diet. Se-ii was administered between 10.00 am and 12 noon. Body radioactivity was then measured in a whole-body counter immediately after administering the ^75 Se-ii and subsequently at 48 hours and 7 days.

[2] = Tissue distribution studies in rats after oral administration; type: in vivo, rat; conditions: for whole body retention by tissue distribution (dissection): at the end of 8 days
Experimental: The pattern of tissue distribution is similar for all the compounds. At 20 hours the ^75 Se radioactivity is largely confined to the liver, gut and faeces; apart from compounds iii and iv less than 5 percent of the radioactivity is distributed among other organs.

[3] = Whole-body excretion studies in rats after oral administration (whole-body counts, bi-exponential fit); type: in vivo, rat; conditions: for b (amplitude of second component) / c (constant; percentage predicted as never being excreted) / x (rate constant of first component) / y (rate constant of second component): Retention(t)=ae^-xt+be^-yt+c; for a (amplitude of first component, Retention(t)=ae^-xt+be^-yt+c): whole-body retention as % of initial counts, 6-8 days
Experimental: Whole-body excretion studies in rats over a period of 8 days after oral administration of compounds i to viii indicate that excretion is delayed with respect to a non-absorbable radioactive maker, ^131 I-polyvinylpyrollidone.
For each of the eight compounds under investigation, approximately 10-15 μCi was administered via an intragastric tube to rats. Whole-body counts were determined immediately after administration and at intervals during the following 6-8 days. A whole-body standard permitted corrections for radioactive decay and variations in counter efficiency.
Whole-body retention is expressed as a percentage of the counts determined immediately after administration.
Retention (t)=ae^-xt +be^-yt +c (1)

[4] = Biliary collection of 75Se radioactivity after intravenous injection, bile-cannulated rabbit; type: in vivo
Experimental: A male rabbit (NZW×LOP; 4.8 kg) was anaesthetized with sodium pentobarbitone ("Sagatal"), intravenously injected. A tracheotomy was performed and into a jugular vein was inserted a cannula with a 3-way tap. The animal was ventilated by intermittent positive pressure and anaesthesia maintained by intravenous administration of pentobarbitone as required. A midline ventral incision was made in the abdominal wall and the liver reflected to reveal the gall bladder, cystic duct and the common bile duct. After ligation of the cystic duct the common bile duct was cannulated for the collection of bile.
After a period of stabilization 1 ml of a solution of 19-methyl-[^75 Se]selenocholesterol (0.01 mg; 12 mCi) in polysorbate/normal saline was injected via the jugular cannula. Bile was collected as a series of 15-minute samples in preweighed tubes. After collection each sample was weighed and counted for ^75 Se radioactivity. The flow of bile, initially at 3.4 ml/15 minutes, declined to 1.5 ml/15 minutes after 61/2 hours. During this period 56.65 g of bile was collected containing approximately 100 μCi of ^75 Se radioactivity (about 1 percent of the injected dose).

[5] = Intravenous administration to humans with the object of adrenal visualisation; type: in vivo, human
Text: It was surmised that 19-methyl-^75 Se selenocholesterol was being converted to analogues of bile salts in which a methylseleno group was attached to the C19 carbon atom.

[6] = Biliary excretion studies in rats, oral mixture of 75Se-seleno bile acid and 14C-cholic acid; type: in vivo, rat
Experimental: Measurement of the ratio of the ^14 C/^75 Se radioactivity collected in a 24 hour bile sample to the ^14 C/^75 Se radioactivity administered orally gives an indication of the efficiency of absorption of the seleno bile acid as compared to ^14 C-cholic acid. Ideally, when these absorptions are the same the ratio would be 1, but as the efficiency of the adsorption seleno bile acid diminishes the ratio increases.

[7] = at 20 hours, relative to the other compounds

C[C@H](C[75Se]CC(=O)O)[C@H]1CC[C@H]2[C@@H]3CC[C@@H]4C[C@H](O)CC[C@]4(C)[C@H]3C[C@H](O)[C@]12C [Compound ii, 3α,12α-dihydroxy-22-(carboxymethyl-[^75 Se]seleno)-23,24-bisnor-5β-cholane]
Retention of Selenium-75 Radioactivity ([1]; Ileal resection (3), 0 h): 100% | Retention of Selenium-75 Radioactivity ([1]; Ileal resection (3), 48 hrs.): 26% | Retention of Selenium-75 Radioactivity ([1]; Ileal resection (3), 7 days): 7.5% | Retention of Selenium-75 Radioactivity ([1]; Ileal resection (4), 0 h, patient on drugs to slow bowel transfer): 100% | Retention of Selenium-75 Radioactivity ([1]; Ileal resection (4), 48 hrs., patient on drugs to slow bowel transfer): 80% | Retention of Selenium-75 Radioactivity ([1]; Ileal resection (4), 7 days, patient on drugs to slow bowel transfer): 9.5% | Retention of Selenium-75 Radioactivity ([1]; Normal (1), 0 h): 100% | Retention of Selenium-75 Radioactivity ([1]; Normal (1), 48 hrs.): 80% | Retention of Selenium-75 Radioactivity ([1]; Normal (1), 7 days): 31% | Retention of Selenium-75 Radioactivity ([1]; Normal (2), 0 h): 100% | Retention of Selenium-75 Radioactivity ([1]; Normal (2), 48 hrs.): 100% | Retention of Selenium-75 Radioactivity ([1]; Normal (2), 7 days): 27% | rate of elimination from the body ([1]; humans who have suffered an ileal resection): this rate of elimination is increased | rate of elimination from the body ([1]; normal humans, compared with rats): considerably slower than it is for rats | 75Se radioactivity in the faeces [2, 7]: a very much small percentage of ^75 Se radioactivity in the faeces | 75Se radioactivity in the small bowel [2, 7]: a correspondingly larger proportion in the small bowel | b (amplitude of second component) [3]: 27.6% | c (constant; percentage predicted as never being excreted) [3]: 3.36% | x (rate constant of first component) [3]: 2.29 day⁻¹ | y (rate constant of second component) [3]: 0.65 day⁻¹ | a (amplitude of first component, Retention(t)=ae^-xt+be^-yt+c) [3]: 190%

C[C@H](CC[75Se]CCC(=O)O)[C@H]1CC[C@H]2[C@@H]3[C@H](O)C[C@@H]4C[C@H](O)CC[C@]4(C)[C@H]3C[C@H](O)[C@]12C [iv, 3α,7α,12α-trihydroxy-23-(β-carboxyethyl-[^75 Se]seleno)-24-nor-5β-cholane]
whole body retention by tissue distribution (dissection) [2]: ~5.5% | whole body retention by tissue distribution (dissection) ([2]; listed as tri-hydroxy compound): approximately 5.5% | b (amplitude of second component) [3]: 42.5% | c (constant; percentage predicted as never being excreted) [3]: 15.5% | x (rate constant of first component) [3]: 2.77 day⁻¹ | y (rate constant of second component) [3]: 0.66 day⁻¹ | a (amplitude of first component, Retention(t)=ae^-xt+be^-yt+c) [3]: 260%

CC([75Se]CC(=O)NCC(=O)O)[C@H]1CC[C@H]2[C@@H]3[C@H](O)C[C@@H]4C[C@H](O)CC[C@]4(C)[C@H]3C[C@H](O)[C@]12C (some centres unmarked) [vi, Glyco-22-[^75 Se]selenacholic acid]
b (amplitude of second component) [3]: 7.2% | c (constant; percentage predicted as never being excreted) [3]: 0.58% | x (rate constant of first component) [3]: 1.54 day⁻¹ | y (rate constant of second component) [3]: 0.54 day⁻¹ | a (amplitude of first component, Retention(t)=ae^-xt+be^-yt+c) [3]: 221%

C[75Se]C[C@]12CC[C@H](O)CC1=CC[C@@H]1[C@@H]2CC[C@]2(C)[C@@H]([C@H](C)CCCC(C)C)CC[C@@H]12 [19-methyl-[^75 Se]selenocholesterol]
75Se radioactivity collected in bile (of injected dose) ([4]; i.v. via jugular cannula, bile collected 6 1/2 hours, 390 min): about 1% | 75Se radioactivity collected in bile ([4]; i.v., 12 mCi injected, 56.65 g bile over 6 1/2 hours): approximately 100 μCi | localisation of selenium-75 radioactivity [5]: concentrated in the enterohepatic system | metabolism compared with cholesterol [5]: appeared to parallel that of cholesterol

C[C@H](CC[123Te]CC(=O)O)[C@H]1CC[C@H]2[C@@H]3CC[C@@H]4C[C@H](O)CC[C@]4(C)[C@H]3C[C@H](O)[C@]12C [viii, 3α,12α-dihydroxy-23-(carboxymethyl-[^123m Te]telluro)-24-nor-5β-cholane]
b (amplitude of second component) [3]: 6.3% | c (constant; percentage predicted as never being excreted) [3]: 1.3% | x (rate constant of first component) [3]: 2.26 day⁻¹ | y (rate constant of second component) [3]: 0.43 day⁻¹ | a (amplitude of first component, Retention(t)=ae^-xt+be^-yt+c) [3]: 173%

C[C@H](CC[75Se]CCC(=O)O)[C@H]1CC[C@H]2[C@@H]3[C@H](O)C[C@@H]4C[C@H](O)CC[C@]4(C)[C@H]3CC[C@]12C [iii, 3α,7α-dihydroxy-23-(β-carboxyethyl-[^75 Se]seleno)-24-nor-5β-cholane]
ratio of 14C/75Se radioactivity in 24 hour bile sample to 14C/75Se administered orally ([6]; 24 h bile, 14C-cholic acid internal marker, 1 = absorption same as cholic acid): 54 | efficiency of absorption ([6]; compared to 14C-cholic acid): very much reduced absorption | b (amplitude of second component) [3]: 37.5% | c (constant; percentage predicted as never being excreted) [3]: 4.0% | x (rate constant of first component) [3]: 2.31 day⁻¹ | y (rate constant of second component) [3]: 0.53 day⁻¹ | a (amplitude of first component, Retention(t)=ae^-xt+be^-yt+c) [3]: 170%

C[C@H](CCC[75Se]CC(=O)O)[C@H]1CC[C@H]2[C@@H]3CC[C@@H]4C[C@H](O)CC[C@]4(C)[C@H]3CC[C@]12C [vii, 3α-hydroxy-24-(carboxymethyl-[^75 Se]seleno)-5β-cholane]
b (amplitude of second component) [3]: 11.8% | c (constant; percentage predicted as never being excreted) [3]: 2.85% | x (rate constant of first component) [3]: 2.29 day⁻¹ | y (rate constant of second component) [3]: 0.44 day⁻¹ | a (amplitude of first component, Retention(t)=ae^-xt+be^-yt+c) [3]: 203%

CC([75Se]CC(=O)O)[C@H]1CC[C@H]2[C@@H]3[C@H](O)C[C@@H]4C[C@H](O)CC[C@]4(C)[C@H]3C[C@H](O)[C@]12C (stereo partly drawn) [v, 3α,7α,12α-trihydroxy-20-(carboxymethyl-[^75 Se]seleno)-5β-pregnane]
b (amplitude of second component) [3]: 16.5% | c (constant; percentage predicted as never being excreted) [3]: 0.8% | x (rate constant of first component) [3]: 2.52 day⁻¹ | y (rate constant of second component) [3]: 0.38 day⁻¹ | a (amplitude of first component, Retention(t)=ae^-xt+be^-yt+c) [3]: 98%
